Our source for the IC50 values is patent US12023319B2, “Carboxylic acid aromatic amides” (priority 2016, dated 2024).

In general, IC50 refers to the point on the concentration scale where inhibition reaches its midpoint.

For the assay, the target named is T1, human Bradykinin B1 receptor (Homo sapiens, UniProt P46663).
T1 construct: host or cells: CHO-K1
T1 sequence (P46663 1-353): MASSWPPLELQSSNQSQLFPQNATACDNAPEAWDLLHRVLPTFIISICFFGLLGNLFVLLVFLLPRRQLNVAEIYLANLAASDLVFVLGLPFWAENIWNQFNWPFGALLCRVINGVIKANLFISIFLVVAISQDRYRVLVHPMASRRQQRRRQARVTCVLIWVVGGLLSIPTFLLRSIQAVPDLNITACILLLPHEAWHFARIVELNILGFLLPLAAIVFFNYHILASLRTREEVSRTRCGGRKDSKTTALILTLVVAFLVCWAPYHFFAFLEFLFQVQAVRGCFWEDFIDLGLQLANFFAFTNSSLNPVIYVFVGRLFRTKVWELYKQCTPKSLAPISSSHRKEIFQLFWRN
The experiment in a line: Calcium flux assay (FLIPR), CHO-K1 cells expressing human Bradykinin B1 receptor, absence of 0.1% BSA (hB1 free IC50). The conditions noted are these: absence of 0.1% BSA in assay buffer. It is filed as cell-based. Summed up: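 Peak FLIPR fluorescence (538 nm) after B1 agonist peptide addition gave IC50s, scaled between DMSO and full block by 20 µM Lys-(Des-Arg-Leu)-Bradykinin. Compounds were preincubated 30 min at 28° C with calcium-dye-loaded CHO-K1 cells expressing human B1, at 8 concentrations in triplicate, 1% DMSO final.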
Background: Calcium assays in cells follow changes in intracellular calcium, usually with a dye or a luminescent sensor.

On to `Cc1ccc(C2(C(=O)Nc3ccc(-c4cnn(CC(C)C)c4)c(C(=O)O)c3)CC2)c(F)c1` [Example 118, 5-({[1-(2-Fluoro-4-methylphenyl)cyclopropyl]carbonyl}amino)-2-(1-isobutyl-1H-pyrazol-4-yl)benzoic acid], for which the IC50 came out at 130 nM. To `O=C(O)c1cc(NC(=O)C2(c3ccc(C(F)(F)F)cc3F)CC2)ccc1-c1cnn(CC2CCC2)c1` [Example 119, 2-[1-(Cyclobutylmethyl)-1H-pyrazol-4-yl]-5-[({1-[2-fluoro-4-(trifluoromethyl)phenyl]cyclopropyl}carbonyl)amino]benzoic acid] belongs 25 nM. To `O=C(O)c1cc(NC(=O)C2(c3ccc(OC(F)(F)F)cc3F)CC2)ccc1-c1cnn(CC2CCC2)c1` [Example 120, 2-[1-(Cyclobutylmethyl)-1H-pyrazol-4-yl]-5-[({1-[2-fluoro-4-(trifluoromethoxy)phenyl]cyclopropyl}carbonyl)amino]benzoic acid] belongs 17 nM. To `O=C(O)c1cc(NC(=O)C2(c3ccc(C(F)(F)F)cc3F)CC2)ccc1-c1cnn(C2CCCC2)c1` [Example 121, 2-(1-Cyclopentyl-1H-pyrazol-4-yl)-5-[({1-[2-fluoro-4-(trifluoromethyl)phenyl]cyclopropyl}carbonyl)amino]benzoic acid] belongs 18 nM.

As for `O=C(O)c1cc(NC(=O)C2(c3ccc(C(F)(F)F)cc3F)CC2)ccc1-c1cnn(C2CCCCC2)c1` [Example 122, 2-(1-Cyclohexyl-1H-pyrazol-4-yl)-5-[({1-[2-fluoro-4-(trifluoromethyl)phenyl]cyclopropyl}carbonyl)amino]benzoic acid], the IC50 turned out to be 13 nM. With `O=C(O)c1cc(NC(=O)C2(c3ccc(OC(F)(F)F)cc3F)CC2)ccc1-c1cnn(C2CCCCC2)c1` [Example 123, 2-(1-Cyclohexyl-1H-pyrazol-4-yl)-5-[({1-[2-fluoro-4-(trifluoromethoxy)phenyl]cyclopropyl}carbonyl)amino]benzoic acid], the IC50 stood at 22 nM. Next, `O=C(O)c1cc(NC(=O)C2(c3ccc(C(F)(F)F)cc3F)CC2)ccc1-c1cnn(C2CC2)c1` [Example 124, 2-(1-Cyclopropyl-1H-pyrazol-4-yl)-5-[({1-[2-fluoro-4-(trifluoromethyl)phenyl]cyclopropyl}carbonyl)amino]benzoic acid]: 200 nM; `O=C(O)c1cc(NC(=O)C2(c3ccc(OC(F)(F)F)cc3F)CC2)ccc1-c1cnn(C2CC2)c1` [Example 125, 2-(1-Cyclopropyl-1H-pyrazol-4-yl)-5-[({1-[2-fluoro-4-(trifluoromethoxy)phenyl]cyclopropyl}carbonyl)amino]benzoic acid]: 170 nM; `O=C(O)c1cc(NC(=O)C2(c3ccc(C(F)(F)F)cc3F)CC2)cc(F)c1-c1cnn(CC2CC2)c1` [Example 126, 2-[1-(Cyclopropylmethyl)-1H-pyrazol-4-yl]-3-fluoro-5-[({1-[2-fluoro-4-(trifluoromethyl)phenyl]cyclopropyl}carbonyl)amino]benzoic acid]: 14 nM. To `O=C(O)c1cc(NC(=O)C2(c3ccc(OC(F)(F)F)cc3F)CC2)cc(F)c1-c1cnn(CC2CC2)c1` [Example 127, 2-[1-(Cyclopropylmethyl)-1H-pyrazol-4-yl]-3-fluoro-5-[({1-[2-fluoro-4-(trifluoromethoxy)phenyl]cyclopropyl}carbonyl)amino]benzoic acid] belongs 11 nM; to `Cc1ccc(-c2c(F)cc(NC(=O)C3(c4ccc(C(F)(F)F)cc4F)CC3)cc2C(=O)O)cn1` [Example 128, 3-Fluoro-5-[({1-[2-fluoro-4-(trifluoromethyl)phenyl]cyclopropyl}carbonyl)amino]-2-(6-methylpyridin-3-yl)benzoic acid], 37 nM. To `O=C(O)c1cc(NC(=O)C2(c3ccc(C(F)(F)F)cc3F)CC2)ccc1-n1cc(C2CCC2)cn1` [Example 129, 2-(4-Cyclobutyl-1H-pyrazol-1-yl)-5-[({1-[2-fluoro-4-(trifluoromethyl)phenyl]cyclopropyl}carbonyl)amino]benzoic acid] belongs 620 nM; to `O=C(O)c1cc(NC(=O)C2(c3ccc(OC(F)(F)F)cc3F)CC2)ccc1-n1cc(C2CCC2)cn1` [Example 130, 2-(4-Cyclobutyl-1H-pyrazol-1-yl)-5-[({1-[2-fluoro-4-(trifluoromethoxy)phenyl]cyclopropyl}carbonyl)amino]benzoic acid], 590 nM; to `CC[C@H](C)n1cc(-c2ccc(NC(=O)C3(c4ccc(C(F)(F)F)cc4F)CC3)cc2C(=O)O)cn1` [Example 131, 2-{1-[(2S)-Butan-2-yl]-1H-pyrazol-4-yl}-5-[({1-[2-fluoro-4-(trifluoromethyl)phenyl]cyclopropyl}carbonyl)amino]benzoic acid], 50 nM. On to `CC[C@H](C)n1cc(-c2ccc(NC(=O)C3(c4ccc(OC(F)(F)F)cc4F)CC3)cc2C(=O)O)cn1` [Example 132, 2-{1-[(2S)-Butan-2-yl]-1H-pyrazol-4-yl}-5-[({1-[2-fluoro-4-(trifluoromethoxy)phenyl]cyclopropyl}carbonyl)amino]benzoic acid], for which the IC50 was 56 nM. In the case of `CC[C@@H](C)n1cc(-c2ccc(NC(=O)C3(c4ccc(C(F)(F)F)cc4F)CC3)cc2C(=O)O)cn1` [Example 133, 2-{1-[(2R)-Butan-2-yl]-1H-pyrazol-4-yl}-5-[({1-[2-fluoro-4-(trifluoromethyl)phenyl]cyclopropyl}carbonyl)amino]benzoic acid], the IC50 was 59 nM. To `CC[C@@H](C)n1cc(-c2ccc(NC(=O)C3(c4ccc(OC(F)(F)F)cc4F)CC3)cc2C(=O)O)cn1` [Example 134, 2-{1-[(2R)-Butan-2-yl]-1H-pyrazol-4-yl}-5-[({1-[2-fluoro-4-(trifluoromethoxy)phenyl]cyclopropyl}carbonyl)amino]benzoic acid] belongs 44 nM; to `CC[C@H](C)n1cc(-c2c(F)cc(NC(=O)C3(c4ccc(C(F)(F)F)cc4F)CC3)cc2C(=O)O)cn1` [Example 135, 2-{1-[(2S)-Butan-2-yl]-1H-pyrazol-4-yl}-3-fluoro-5-[({1-[2-fluoro-4-(trifluoromethyl)phenyl]cyclopropyl}carbonyl)amino]benzoic acid], 33 nM; to `CC[C@@H](C)n1cc(-c2c(F)cc(NC(=O)C3(c4ccc(C(F)(F)F)cc4F)CC3)cc2C(=O)O)cn1` [Example 136, 2-{1-[(2R)-Butan-2-yl]-1H-pyrazol-4-yl}-3-fluoro-5-[({1-[2-fluoro-4-(trifluoromethyl)phenyl]cyclopropyl}carbonyl)amino]benzoic acid], 28 nM. Next, `Cn1cc(-c2c(F)cc(NC(=O)C3(c4ccc(OC(F)(F)F)cc4F)CC3)cc2C(=O)O)cn1` [Example 137, 3-Fluoro-5-[({1-[2-fluoro-4-(trifluoromethoxy)phenyl]cyclopropyl}carbonyl)amino]-2-(1-methyl-1H-pyrazol-4-yl)benzoic acid]: 70 nM; `CCn1cc(-c2c(F)cc(NC(=O)C3(c4ccc(C(F)(F)F)cc4F)CC3)cc2C(=O)O)cn1` [Example 138, 2-(1-Ethyl-1H-pyrazol-4-yl)-3-fluoro-5-[({1-[2-fluoro-4-(trifluoromethyl)phenyl]cyclopropyl}carbonyl)amino]benzoic acid]: 18 nM; `CCn1cc(-c2c(F)cc(NC(=O)C3(c4ccc(OC(F)(F)F)cc4F)CC3)cc2C(=O)O)cn1` [Example 139, 2-(1-Ethyl-1H-pyrazol-4-yl)-3-fluoro-5-[({1-[2-fluoro-4-(trifluoromethoxy)phenyl]cyclopropyl}carbonyl)amino]benzoic acid]: 13 nM.

Regarding `CC(C)n1cc(-c2c(F)cc(NC(=O)C3(c4ccc(Cl)cc4F)CC3)cc2C(=O)O)cn1` [Example 140, 5-({[1-(4-Chloro-2-fluorophenyl)cyclopropyl]carbonyl}amino)-3-fluoro-2-(1-isopropyl-1H-pyrazol-4-yl)benzoic acid], the IC50 worked out at 21 nM. For `O=C(O)c1cc(NC(=O)C2(c3ccccc3)CC2)cc(F)c1-c1cnn(C2CCC2)c1` [Example 141, 2-(1-Cyclobutyl-1H-pyrazol-4-yl)-3-fluoro-5-{[(1-phenylcyclopropyl)carbonyl]amino}benzoic acid], the IC50 came to 2800 nM. Regarding `O=C(O)c1cc(NC(=O)C2(Cc3ccc(Cl)cc3)CC2)cc(F)c1-c1cnn(C2CCC2)c1` [Example 142, 5-({[1-(4-Chlorobenzyl)cyclopropyl]carbonyl}amino)-2-(1-cyclobutyl-1H-pyrazol-4-yl)-3-fluorobenzoic acid], the IC50 came to 3100 nM. In the case of `Cn1cc(-c2c(F)cc(NC(=O)C3(c4ccc(C(F)(F)F)cc4F)CC3)cc2C(=O)O)cn1` [Example 143, 3-Fluoro-5-[({1-[2-fluoro-4-(trifluoromethyl)phenyl]cyclopropyl}carbonyl)amino]-2-(1-methyl-1H-pyrazol-4-yl)benzoic acid], the IC50 came out at 78 nM. Turning to `CC1CCC(C2(C(=O)Nc3cc(F)c(-c4cnn(C5CCC5)c4)c(C(=O)O)c3)CC2)CC1` (stereo not shown) [Example 145, 2-(1-Cyclobutyl-1H-pyrazol-4-yl)-3-fluoro-5-({[1-(4-methylcyclohexyl)cyclopropyl]carbonyl}amino)benzoic acid], the IC50 was found to be 160 nM.

Regarding `O=C(O)c1cc(NC(=O)C2(c3ccc(Cl)cc3F)CC2)ccc1-c1cnc(C2CCC2)s1` [Example 146, 5-({[1-(4-Chloro-2-fluorophenyl)cyclopropyl]carbonyl}amino)-2-(2-cyclobutyl-1,3-thiazol-5-yl)benzoic acid], the IC50 was 3.7 nM.
